Source: article PMC9512014 (Journal of Medicinal Chemistry, 2022)

Legend:
HDAC4 [1] = biological target: T1, HDAC4 (Homo sapiens, UniProt P56524); assay: HDAC4 degradation by western blot in Jurkat E6-1 cells; type: cell-based; details: Jurkat E6-1, 24 h; for hook effect: immunoblot, at 10 μM
Target sequence in this assay (P56524 whole entry): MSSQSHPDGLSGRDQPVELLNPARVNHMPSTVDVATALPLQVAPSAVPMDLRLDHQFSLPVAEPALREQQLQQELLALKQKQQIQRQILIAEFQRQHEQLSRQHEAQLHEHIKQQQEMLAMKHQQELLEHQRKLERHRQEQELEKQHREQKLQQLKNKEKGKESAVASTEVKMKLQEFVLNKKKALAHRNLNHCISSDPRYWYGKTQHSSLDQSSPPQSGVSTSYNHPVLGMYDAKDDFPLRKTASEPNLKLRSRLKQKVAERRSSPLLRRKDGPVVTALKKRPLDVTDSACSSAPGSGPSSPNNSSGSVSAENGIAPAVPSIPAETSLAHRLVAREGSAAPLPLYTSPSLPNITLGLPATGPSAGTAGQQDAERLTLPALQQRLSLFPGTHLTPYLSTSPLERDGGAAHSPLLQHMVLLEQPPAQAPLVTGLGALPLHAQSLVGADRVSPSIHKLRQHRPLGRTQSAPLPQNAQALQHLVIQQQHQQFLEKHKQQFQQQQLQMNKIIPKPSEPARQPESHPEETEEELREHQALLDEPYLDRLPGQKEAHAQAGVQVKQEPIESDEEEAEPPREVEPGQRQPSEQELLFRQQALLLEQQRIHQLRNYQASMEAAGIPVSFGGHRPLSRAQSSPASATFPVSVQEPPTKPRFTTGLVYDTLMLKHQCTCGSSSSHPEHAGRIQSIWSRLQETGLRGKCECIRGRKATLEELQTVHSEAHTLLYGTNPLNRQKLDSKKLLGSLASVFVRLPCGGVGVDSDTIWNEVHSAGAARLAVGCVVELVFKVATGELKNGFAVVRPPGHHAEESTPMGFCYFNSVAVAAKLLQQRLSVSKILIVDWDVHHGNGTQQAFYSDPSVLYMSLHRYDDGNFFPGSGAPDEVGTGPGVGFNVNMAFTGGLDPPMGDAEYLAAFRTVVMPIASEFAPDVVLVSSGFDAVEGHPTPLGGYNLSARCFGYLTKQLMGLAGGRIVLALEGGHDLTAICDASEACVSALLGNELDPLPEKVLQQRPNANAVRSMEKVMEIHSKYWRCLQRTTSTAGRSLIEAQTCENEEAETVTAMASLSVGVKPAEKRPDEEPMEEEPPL

HDAC1 = HDAC1 (Homo sapiens, UniProt Q13547); assay: Multiplexed selectivity western blot in Jurkat cells, HDAC1; type: cell-based; details: Jurkat E6-1, 24 h, concentration response
HDAC3 = HDAC3 (Homo sapiens, UniProt O15379); assay: Multiplexed selectivity western blot in Jurkat cells, HDAC3; type: cell-based; details: Jurkat E6-1, 24 h, concentration response up to 10 μM
HDAC5 = HDAC5 (Homo sapiens, UniProt Q9UQL6); assay: Multiplexed selectivity western blot in Jurkat cells, HDAC5; type: cell-based; details: Jurkat E6-1, 24 h, concentration response
HDAC7 = biological target: T2, HDAC7 (Homo sapiens, UniProt Q8WUI4); assay: Multiplexed selectivity western blot in Jurkat cells, HDAC7; type: cell-based; details: Jurkat E6-1, 24 h, concentration response
T2 sequence (Q8WUI4 1-952): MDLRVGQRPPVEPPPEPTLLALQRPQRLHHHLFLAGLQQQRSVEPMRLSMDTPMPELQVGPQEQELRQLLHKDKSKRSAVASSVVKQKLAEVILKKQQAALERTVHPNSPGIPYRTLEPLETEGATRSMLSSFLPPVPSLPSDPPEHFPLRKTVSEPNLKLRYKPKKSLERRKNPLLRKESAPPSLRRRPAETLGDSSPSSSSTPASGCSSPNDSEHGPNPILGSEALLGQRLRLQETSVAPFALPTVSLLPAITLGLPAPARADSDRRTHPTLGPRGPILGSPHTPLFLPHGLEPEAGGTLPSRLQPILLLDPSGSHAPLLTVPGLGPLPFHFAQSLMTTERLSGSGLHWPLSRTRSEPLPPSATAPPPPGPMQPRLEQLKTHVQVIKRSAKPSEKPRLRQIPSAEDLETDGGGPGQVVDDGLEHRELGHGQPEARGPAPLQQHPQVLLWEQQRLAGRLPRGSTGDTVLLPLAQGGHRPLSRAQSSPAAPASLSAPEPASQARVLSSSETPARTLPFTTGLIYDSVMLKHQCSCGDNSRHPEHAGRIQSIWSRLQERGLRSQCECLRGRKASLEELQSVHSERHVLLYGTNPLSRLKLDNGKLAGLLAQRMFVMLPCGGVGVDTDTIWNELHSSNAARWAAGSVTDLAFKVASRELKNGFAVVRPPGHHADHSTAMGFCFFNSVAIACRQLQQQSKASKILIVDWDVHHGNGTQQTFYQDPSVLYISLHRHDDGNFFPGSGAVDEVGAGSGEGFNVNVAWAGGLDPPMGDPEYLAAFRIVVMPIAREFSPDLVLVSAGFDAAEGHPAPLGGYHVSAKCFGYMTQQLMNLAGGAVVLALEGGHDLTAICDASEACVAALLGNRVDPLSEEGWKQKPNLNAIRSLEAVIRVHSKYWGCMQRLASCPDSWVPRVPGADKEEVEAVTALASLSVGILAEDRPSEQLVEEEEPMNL

HDAC9 = HDAC9 (Homo sapiens, UniProt Q9UKV0); assay: Multiplexed selectivity western blot in Jurkat cells, HDAC9; type: cell-based; details: Jurkat E6-1, 24 h, concentration response
HDAC4 [2] = biological target: T1, HDAC4; type: cell-based; details: Jurkat E6-1, 6 h; compound 7 at 1 μM, compound 11 at 100 nM
Target sequence in this assay (P56524 whole entry): as the sequence (P56524 whole entry) above

class I HDAC = details: read-out: HDAC cellular IC50 class I; Jurkat E6.1, treated for 24 h; substrate Boc-Lys(Ac)AMC
HDAC4 [3] = biological target: T1, HDAC4; assay: Recombinant HDAC4 enzymatic inhibition assay; details: HDAC enzymatic activity assays
Target sequence in this assay (P56524 655-1084 limits assumed): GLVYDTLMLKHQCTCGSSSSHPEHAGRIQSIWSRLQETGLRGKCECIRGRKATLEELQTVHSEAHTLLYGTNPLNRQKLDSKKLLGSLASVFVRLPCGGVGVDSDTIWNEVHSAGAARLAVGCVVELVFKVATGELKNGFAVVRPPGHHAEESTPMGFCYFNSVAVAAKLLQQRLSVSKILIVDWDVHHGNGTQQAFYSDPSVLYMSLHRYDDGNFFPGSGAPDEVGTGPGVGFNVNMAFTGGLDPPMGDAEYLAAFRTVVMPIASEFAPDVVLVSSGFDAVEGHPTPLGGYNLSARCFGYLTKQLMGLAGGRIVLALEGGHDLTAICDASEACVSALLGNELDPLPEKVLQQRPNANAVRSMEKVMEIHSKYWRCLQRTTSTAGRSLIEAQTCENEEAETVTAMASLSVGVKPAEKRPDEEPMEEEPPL

HDAC4 [4] = biological target: HDAC4 (Mus musculus, UniProt Q6NZM9); details: R6/2 mice, chronic administration; cited from earlier work
aggregate load = details: R6/2 mice, chronic administration, cortex and brain stem; cited from earlier work

Chain of HDAC5 (Q9UQL6 whole entry): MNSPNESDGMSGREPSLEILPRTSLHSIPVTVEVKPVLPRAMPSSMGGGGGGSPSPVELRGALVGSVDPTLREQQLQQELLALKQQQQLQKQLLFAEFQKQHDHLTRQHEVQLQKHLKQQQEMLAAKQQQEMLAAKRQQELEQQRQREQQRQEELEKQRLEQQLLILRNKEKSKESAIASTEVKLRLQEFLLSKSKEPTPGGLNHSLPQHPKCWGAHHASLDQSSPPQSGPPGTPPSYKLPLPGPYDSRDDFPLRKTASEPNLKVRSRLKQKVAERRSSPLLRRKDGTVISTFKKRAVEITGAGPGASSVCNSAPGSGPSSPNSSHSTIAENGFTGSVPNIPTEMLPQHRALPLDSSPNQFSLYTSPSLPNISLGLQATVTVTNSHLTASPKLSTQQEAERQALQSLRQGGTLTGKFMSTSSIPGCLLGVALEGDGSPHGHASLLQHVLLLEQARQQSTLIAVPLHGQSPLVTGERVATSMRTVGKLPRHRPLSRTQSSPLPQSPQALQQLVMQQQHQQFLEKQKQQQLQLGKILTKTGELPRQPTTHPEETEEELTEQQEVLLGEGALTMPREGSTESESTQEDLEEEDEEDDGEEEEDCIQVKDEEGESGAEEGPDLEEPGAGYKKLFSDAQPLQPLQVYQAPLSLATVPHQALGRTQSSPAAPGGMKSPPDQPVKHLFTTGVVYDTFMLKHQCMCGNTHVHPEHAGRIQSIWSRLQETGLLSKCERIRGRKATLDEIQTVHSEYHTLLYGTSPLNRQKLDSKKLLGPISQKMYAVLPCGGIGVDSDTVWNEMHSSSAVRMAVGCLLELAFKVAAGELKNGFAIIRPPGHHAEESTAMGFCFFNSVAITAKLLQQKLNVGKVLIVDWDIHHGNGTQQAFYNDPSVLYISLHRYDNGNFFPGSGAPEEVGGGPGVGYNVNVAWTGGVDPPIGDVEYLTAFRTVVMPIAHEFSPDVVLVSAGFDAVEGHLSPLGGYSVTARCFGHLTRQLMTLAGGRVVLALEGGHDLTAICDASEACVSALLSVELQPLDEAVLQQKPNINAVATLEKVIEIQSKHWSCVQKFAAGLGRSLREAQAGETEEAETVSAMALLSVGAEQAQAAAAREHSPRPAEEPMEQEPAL
Chain of HDAC1 (Q13547 whole entry): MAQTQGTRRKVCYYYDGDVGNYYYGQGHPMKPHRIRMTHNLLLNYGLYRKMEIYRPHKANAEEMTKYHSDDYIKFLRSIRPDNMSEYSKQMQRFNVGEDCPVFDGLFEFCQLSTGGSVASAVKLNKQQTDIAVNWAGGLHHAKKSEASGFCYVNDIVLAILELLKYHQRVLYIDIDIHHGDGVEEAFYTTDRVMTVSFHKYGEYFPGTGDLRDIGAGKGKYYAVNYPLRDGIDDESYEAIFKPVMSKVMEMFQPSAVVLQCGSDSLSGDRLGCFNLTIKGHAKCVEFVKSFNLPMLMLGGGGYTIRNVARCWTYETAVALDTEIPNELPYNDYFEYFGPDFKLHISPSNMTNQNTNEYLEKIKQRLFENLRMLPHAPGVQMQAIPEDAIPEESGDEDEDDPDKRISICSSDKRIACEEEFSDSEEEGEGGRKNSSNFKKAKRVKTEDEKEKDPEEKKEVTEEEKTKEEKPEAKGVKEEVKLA
Chain of HDAC9 (Q9UKV0 whole entry): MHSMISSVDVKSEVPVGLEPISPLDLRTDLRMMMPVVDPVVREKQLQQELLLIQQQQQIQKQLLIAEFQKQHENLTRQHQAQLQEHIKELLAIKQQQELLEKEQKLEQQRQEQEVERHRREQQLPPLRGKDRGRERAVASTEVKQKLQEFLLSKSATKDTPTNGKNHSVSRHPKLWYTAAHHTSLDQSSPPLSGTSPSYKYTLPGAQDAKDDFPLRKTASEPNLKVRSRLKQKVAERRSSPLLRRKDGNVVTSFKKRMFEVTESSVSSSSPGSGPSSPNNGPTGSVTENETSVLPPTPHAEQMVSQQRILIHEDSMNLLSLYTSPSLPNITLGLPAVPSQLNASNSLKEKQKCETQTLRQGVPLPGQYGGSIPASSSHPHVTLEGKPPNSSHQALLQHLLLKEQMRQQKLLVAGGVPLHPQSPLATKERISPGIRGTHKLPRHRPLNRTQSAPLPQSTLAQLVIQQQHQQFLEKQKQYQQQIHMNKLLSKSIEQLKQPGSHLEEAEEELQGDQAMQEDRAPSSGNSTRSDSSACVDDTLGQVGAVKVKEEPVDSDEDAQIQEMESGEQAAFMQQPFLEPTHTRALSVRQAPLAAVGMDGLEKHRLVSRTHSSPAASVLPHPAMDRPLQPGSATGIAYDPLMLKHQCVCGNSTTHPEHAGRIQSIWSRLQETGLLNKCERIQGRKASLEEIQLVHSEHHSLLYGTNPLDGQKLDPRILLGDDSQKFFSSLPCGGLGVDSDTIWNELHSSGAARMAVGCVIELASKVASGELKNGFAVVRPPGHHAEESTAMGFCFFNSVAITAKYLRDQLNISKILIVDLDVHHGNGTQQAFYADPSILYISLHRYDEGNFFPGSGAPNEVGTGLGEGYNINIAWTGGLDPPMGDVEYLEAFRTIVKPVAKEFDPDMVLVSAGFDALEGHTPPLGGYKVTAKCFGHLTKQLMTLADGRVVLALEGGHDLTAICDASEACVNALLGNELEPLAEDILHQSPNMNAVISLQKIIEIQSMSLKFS
Chain of HDAC3 (O15379 whole entry): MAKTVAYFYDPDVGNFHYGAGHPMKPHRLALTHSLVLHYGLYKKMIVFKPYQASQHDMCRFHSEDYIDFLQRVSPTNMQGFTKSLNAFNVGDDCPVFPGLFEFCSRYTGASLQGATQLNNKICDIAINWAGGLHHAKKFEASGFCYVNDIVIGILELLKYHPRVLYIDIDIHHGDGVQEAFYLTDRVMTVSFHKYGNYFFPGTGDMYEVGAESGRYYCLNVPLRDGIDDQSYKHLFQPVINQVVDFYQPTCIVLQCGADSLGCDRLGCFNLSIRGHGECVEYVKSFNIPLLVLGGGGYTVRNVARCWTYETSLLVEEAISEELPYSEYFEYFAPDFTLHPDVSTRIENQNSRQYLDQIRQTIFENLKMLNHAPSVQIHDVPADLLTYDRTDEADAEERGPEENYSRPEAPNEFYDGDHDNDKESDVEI

Row | hook effect (HDAC4 [1]) | HDAC4 degradation in the presence of 1 μM proteasome inhibitors MG132 or carfilzomib (HDAC4 [2]) | IC50 (class I HDAC) | higher inhibition of HDAC5, HDAC7, and HDAC9 compared to HDAC4 (HDAC4 [3]) | HDAC4 degradation at 10 μM by immunoblot (HDAC4 [1]) | SMILES | degradation of HDAC1 by western blot (HDAC1) | degradation of HDAC3 by western blot (HDAC3) | degradation of HDAC5 by western blot (HDAC5) | degradation of HDAC7 by western blot (HDAC7) | degradation of HDAC9 by western blot (HDAC9) | level of HDAC4 protein in the cortex and brain stem (HDAC4 [4]) | aggregate load in the same brain regions (aggregate load)
1 | hook effect was observed | HDAC4 degradation was prevented | > 5 µM | 3- to 4 fold |  | Cc1ncsc1-c1ccc(CNC(=O)[C@@H]2C[C@@H](O)CN2C(=O)[C@@H](NC(=O)COCCOCCOCCOCCOCC(F)(F)c2cnc(-c3ccc(C(C(=O)NO)c4ccccc4F)cc3)nc2)C(C)(C)C)cc1 (stereo partly drawn) [Compound 7, (2S,4R)-1-((2S)-2-(tert-Butyl)-20,20-difluoro-20-(2-(4-(1-(2-fluorophenyl)-2-(hydroxyamino)-2-oxoethyl)phenyl)pyrimidin-5-yl)-4-oxo-6,9,12,15,18-pentaoxa-3-azaicosan-1-oyl)-4-hydroxy-N-(4-(4-methylthiazol-5-yl)benzyl)pyrrolidine-2-carboxamide] | neither compound demonstrated degradation | No concentration-dependent reduction in immunoreactivity | neither compound demonstrated degradation | neither compound demonstrated degradation | neither compound demonstrated degradation |  | 
2 |  |  | > 5 µM |  | did not induce HDAC4 degradation | Cc1ncsc1-c1ccc(CNC(=O)[C@@H]2C[C@H](O)CN2C(=O)[C@@H](NC(=O)COCCOCCOCCOCCOCC(F)(F)c2cnc(-c3ccc(C(C(=O)NO)c4ccccc4F)cc3)nc2)C(C)(C)C)cc1 (stereo partly drawn) [Compound 8, (2S,4S)-1-((2S)-2-(tert-Butyl)-20,20-difluoro-20-(2-(4-(1-(2-fluorophenyl)-2-(hydroxyamino)-2-oxoethyl)phenyl)pyrimidin-5-yl)-4-oxo-6,9,12,15,18-pentaoxa-3-azaicosanoyl)-4-hydroxy-N-(4-(4-methylthiazol-5-yl)benzyl)pyrrolidine-2-carboxamide] |  |  |  |  |  |  | 
3 | hook effect was not observed | same effect was observed | > 5 µM |  |  | CCCN(CCCCOCCOCCOCCOCCOCC(=O)N[C@H](C(=O)N1C[C@H](O)C[C@H]1C(=O)NCc1ccc(-c2scnc2C)cc1)C(C)(C)C)C[C@@H](C)NC(=O)c1ccc(-c2noc(C(F)(F)F)n2)cc1 [Compound 11, (2S,4R)-1-((3R,26S)-26-(tert-Butyl)-3-methyl-1,24-dioxo-5-propyl-1-(4-(5-trifluoromethyl-1,2,4-oxadiazol-3-yl)phenyl)-10,13,16,19,22-pentaoxa-2,5,25-triazaheptacosan-27-oyl)-4-hydroxy-N-(4-(4-methylthiazol-5-yl)benzyl)pyrrolidine-2-carboxamide] | neither compound demonstrated degradation | showed HDAC3 degradation at the highest dose of 10 μM | neither compound demonstrated degradation | neither compound demonstrated degradation | neither compound demonstrated degradation |  | 
4 |  |  | > 5 µM |  | did not induce HDAC4 degradation | CCCN(CCCCOCCOCCOCCOCCOCC(=O)N[C@@H](C(=O)N1C[C@@H](O)C[C@@H]1C(=O)NCc1ccc(-c2scnc2C)cc1)C(C)(C)C)C[C@@H](C)NC(=O)c1ccc(-c2noc(C(F)(F)F)n2)cc1 [Compound 12, (2R,4S)-1-((3R,26R)-26-(tert-Butyl)-3-methyl-1,24-dioxo-5-propyl-1-(4-(5-trifluoromethyl-1,2,4-oxadiazol-3-yl)phenyl)-10,13,16,19,22-pentaoxa-2,5,25-triazaheptacosan-27-oyl)-4-hydroxy-N-(4-(4-methylthiazol-5-yl)benzyl)pyrrolidine-2-carboxamide] |  |  |  |  |  |  | 
5 |  |  |  |  |  | O=C(CCCCCCC(=O)Nc1ccccc1)NO [SAHA, suberoylanilide hydroxamic acid] |  |  |  |  |  | reduction in the level of HDAC4 protein | decrease in aggregate load
